Columns and labels:
Phytophthora infestans = type: in vivo; details: tomato plants, preventive spray, 100 ppm of active ingredient, evaluated 7 days after inoculation
Plasmopara viticola = experiment: Plasmopara test (grapevines) / preventive; type: in vivo; details: preventive spray, 10 ppm of active ingredient, evaluated 6 days after inoculation
Protocol: Plasmopara Test (Grapevines)/Preventive
Solvent: 24.5 parts by weight of acetone • 24.5 parts by weight of dimethylacetamide Emulsifier: 1 part by weight of alkylaryl polyglycol ether
To produce a suitable preparation of active compound, 1 part by weight of active compound is mixed with the stated amounts of solvent and emulsifier, and the concentrate is diluted with water to the desired concentration.
To test for preventive activity, young plants are sprayed with the preparation of active compound at the stated rate of application. After the spray coating has dried on, the plants are inoculated with an aqueous spore suspension of Plasmopara viticola and then remain for 1 day in an incubation cabinet at approximately 20° C. and a relative atmospheric humidity of 100%. The plant is subsequently placed for 4 days in a greenhouse at approximately 21° C. and a relative atmospheric humidity of approximately 90%. The plants are then misted and placed for 1 day in an incubation cabinet.
The test is evaluated 6 days after the inoculation. 0% means an efficacy which corresponds to that of the untreated control, while an efficacy of 100% means that no disease is observed.

logP(HCOOH) by HPLC = type: physicochemical; details: for log p: HPLC on reversed phase columns, pH 2.7, 0.1% formic acid in water / acetonitrile, linear gradient 10% to 95% acetonitrile, EEC directive 79/831 Annex V.A8
Pythium ultimum = experiment: Pythium test (cotton) / seed treatment; type: in vivo; details: 10 g/dt seed of active ingredient, emerged seedlings counted after 7 days in greenhouse
Protocol: Pythium Test (Cotton)/Seed Treatment
The test is performed under greenhouse conditions.
Cotton seeds, treated with the active compound or compound combinations, solved in N-methyl-2-pyrrolidon and diluted with water to the desired dosages, were sown in 6*6 cm pots containing 4 cm of a 1:1 mix of steamed field soil and sand.
Perlite was incubated with mycelium fragments of Pythium ultimum. 1 ml of infected perlite was scattered between the treated cotton seeds. Seeds were then covered by light expanded clay aggregate. Pots were incubated in the greenhouse 7 days at 20° C. and 80% relative humidity.
Assessment consisted of counting of emerged seedlings. 0% means an efficacy which corresponds to that of the control, while an efficacy of 100% means that all seedlings have emerged.

| Structure (SMILES) | Efficacy % (Phytophthora infestans) [%] | Efficacy % (Plasmopara viticola) [%] | log p (logP(HCOOH) by HPLC) | Efficacy % (Pythium ultimum) [%] | chromatographic logP (logP(HCOOH) by HPLC; reversed phase HPLC column, pH 2.7, HCOOH, read-out: logP(HCOOH)) |
| --- | --- | --- | --- | --- | --- |
| C=CCCCOCC(=O)Nc1nc(CON=C(c2ccccc2)c2nnnn2C)cs1 [Example 6] | 95 | 90 | 3.52 | – | – |
| CON=C(C(=O)Nc1nc(CON=C(c2ccccc2)c2nnnn2C)cs1)c1ccccc1Cl [Example 10] | 95 | 90 | 3.87 | 88 | – |
| Cn1nnnc1C(=NOCc1csc(NC(=O)COC2CCCCC2)n1)c1ccccc1 [Example 12] | 92 | 94 | 3.85 | 100 | – |
| Cc1nnnn1C(=NOCc1cccc(NC(=O)OC(C)CC2CC2)n1)c1ccccc1 (stereo not drawn) [Example 14] | 95 | 94 | 4.24 | – | – |
| Cc1nnnn1C(=NOCc1cccc(NC(=O)OCC2CCCCC2)n1)c1ccccc1 [Example 16] | 95 | 85 | 4.8 | – | – |
| Cc1nnnn1C(=NOCc1cccc(NC(=O)OCCCC2CC2)n1)c1ccccc1 [Example 18] | 100 | 72 | 4.29 | – | – |
| Cc1nnnn1C(=NOCc1cccc(NC(=O)OCC2CCCC2)n1)c1ccccc1 [Example 20] | 95 | 97 | 4.41 | – | – |
| CC(=NOCC(=O)Nc1nc(CON=C(c2ccccc2)n2nnnc2C)cs1)c1ccccc1 [Example 39] | 98 | – | 3.79 | 85 | – |
| C=CCOC(C)C(=O)Nc1cccc(CO/N=C(/c2ccccc2)c2nnnn2C)n1 (stereo not drawn) [Example 42] | 98 | 70 | 3.35 | – | – |
| C=CCOC(C)C(=O)Nc1nc(CO/N=C(/c2ccccc2)n2nnnc2C)cs1 (stereo not drawn) [Example 45] | 95 | 84 | 3.19 | – | – |
| C=CCCOC(C)C(=O)Nc1nc(CO/N=C(/c2ccccc2)c2nnnn2C)cs1 (stereo not drawn) [Example 46] | 98 | 79 | 3.48 | – | – |
| C=CCCOCC(=O)Nc1nc(CO/N=C(/c2ccccc2)c2nnnn2C)cs1 [Example 47] | 95 | 82 | 3.19 | – | – |
| C=CCOC(C)C(=O)Nc1nc(CO/N=C(/c2ccccc2)c2nnnn2C)cs1 (stereo not drawn) [Example 48] | 100 | 74 | 3.13 | – | – |
| C#CCOC(C)C(=O)Nc1nc(CO/N=C(/c2ccccc2)c2nnnn2C)cs1 (stereo not drawn) [Example 51] | 95 | 96 | 2.82 | 100 | – |
| C#CCOC(C)C(=O)Nc1nc(CO/N=C(/c2ccccc2)n2nnnc2C)cs1 (stereo not drawn) [Example 53] | 95 | 95 | 2.92 | 100 | – |
| Cn1nnnc1C(=NOCc1csc(NC(=O)OCCC2CCCCC2)n1)c1ccccc1 [Example 62] | 100 | 88 | 4.66 | – | – |
| Cn1nnnc1C(=NOCc1csc(NC(=O)OCC2CC2)n1)c1ccccc1 [Example 63] | 100 | 93 | 3.23 | – | – |
| CC(CC1CC1)OC(=O)Nc1nc(CON=C(c2ccccc2)c2nnnn2C)cs1 (stereo not drawn) [Example 64] | 95 | 94 | 3.83 | – | – |

| Structure (SMILES) | Efficacy % (Phytophthora infestans) [%] | Efficacy % (Plasmopara viticola) [%] | log p (logP(HCOOH) by HPLC) | Efficacy % (Pythium ultimum) [%] | chromatographic logP (logP(HCOOH) by HPLC; reversed phase HPLC column, pH 2.7, HCOOH, read-out: logP(HCOOH)) |
| --- | --- | --- | --- | --- | --- |
| Cc1nnnn1C(=NOCc1csc(NC(=O)COC2CCCCC2)n1)c1ccccc1 [Example 78] | 100 | 79 | 3.89 | – | – |
| Cn1nnnc1C(=NOCc1csc(NC(=O)COC2CCCC2)n1)c1ccccc1 [Example 84] | 98 | 90 | 3.53 | – | – |
| Cc1nnnn1C(=NOCc1csc(NC(=O)COC2CCCC2)n1)c1ccccc1 [Example 86] | 95 | 81 | 3.6 | – | – |
| Cc1nnnn1C(=NOCc1csc(NC(=O)COC2CCCCCC2)n1)c1ccccc1 [Example 89] | 100 | 73 | 4.3 | – | – |
| Cn1nnnc1C(=NOCc1cccc(NC(=O)COC2CCCCCC2)n1)c1ccccc1 [Example 90] | 100 | – | 4.56 | – | – |
| Cn1nnnc1C(=NOCc1csc(NC(=O)COC2CCCCCC2)n1)c1ccccc1 [Example 91] | 100 | 94 | 4.23 | 96 | – |
| CC(OC1CCCCC1)C(=O)Nc1nc(CON=C(c2ccccc2)c2nnnn2C)cs1 (stereo not drawn) [Example 92] | 100 | 93 | 4.14 | – | – |
| Cc1nnnn1C(=NOCc1csc(NC(=O)C(C)OC2CCCC2)n1)c1ccccc1 (stereo not drawn) [Example 93] | 100 | 91 | 3.87 | – | – |
| Cc1nnnn1C(=NOCc1csc(NC(=O)C(C)OC2CCCCC2)n1)c1ccccc1 (stereo not drawn) [Example 94] | 93 | – | 4.21 | – | – |
| CC(OC1CCCCCC1)C(=O)Nc1nc(CON=C(c2ccccc2)c2nnnn2C)cs1 (stereo not drawn) [Example 95] | 95 | – | 4.51 | – | – |
| Cc1nnnn1C(=NOCc1csc(NC(=O)C(C)OC2CCCCCC2)n1)c1ccccc1 (stereo not drawn) [Example 96] | 98 | – | 4.58 | – | – |
| CC(OC1CCCC1)C(=O)Nc1nc(CO/N=C(/c2ccccc2)c2nnnn2C)cs1 (stereo not drawn) [Example 97, 2-(cyclopentyloxy)-N-{4-[({[(Z)-(1-methyl-1H-tetrazol-5-yl)(phenyl)methylene]amino}oxy)methyl]-1,3-thiazol-2-yl}propanamide] | 95 | – | – | – | 3.8 |
| CC(OC1CCCC1)C(=O)Nc1cccc(CON=C(c2ccccc2)c2nnnn2C)n1 (stereo not drawn) [Example 98] | 98 | – | 4.11 | – | – |
| CC(OC1CCCCC1)C(=O)Nc1cccc(CON=C(c2ccccc2)c2nnnn2C)n1 (stereo not drawn) [Example 99] | 90 | – | 4.49 | – | – |
| C=C=CCCC(=O)Nc1cccc(CON=C(c2ccccc2)c2nnnn2C)n1 [Example 101] | 93 | 81 | 3.21 | 100 | – |
| C=C=CCCC(=O)Nc1nc(CON=C(c2ccccc2)c2nnnn2C)cs1 [Example 102] | 80 | 83 | 3.11 | – | – |
| CC1CCC(C(C)C)C(OCC(=O)Nc2nc(CON=C(c3ccccc3)c3nnnn3C)cs2)C1 (stereo not drawn) [Example 107] | 95 | – | 5.39 | – | – |
| CC1CCC(C(C)C)C(OCC(=O)Nc2nc(CON=C(c3cccc(F)c3)c3nnnn3C)cs2)C1 (stereo not drawn) [Example 109] | 84 | – | 5.47 | – | – |

From US20130012546A1 (priority 2009, published 2013)
